Data set [1] deals with T1, GIM-1 (Pseudomonas aeruginosa, UniProt Q704V1). The data set can be described thus: Enzymatic metallo-β-lactamase assay on purified GIM-1. The conditions noted are these: approximated from Dixon plots (1/v vs [I]) at one constant substrate concentration; ± SE; read-out: Estimated inhibition constant Ki GIM-1. Format: biochemical.
A short description of data set [2]: Long term stability in buffer with 2.5% DMSO (LC-MS). Format: physicochemical. The conditions noted are these: 20 mM KPO4, 0.1 mM ZnCl2, pH 7.0 + 2.5% DMSO; LC-MS 254 nm. The text has this: Reagents, reactants, solvents and drying agents for synthesis, work-up and purification were purchased from commercial vendors (Sigma-Aldrich, VWR, Merck, Fluorochem, Thermo Fisher Scientific, Solveco), and if not stated otherwise they were used without further purification. Reactions and long term stability of the final compounds in buffer were monitored using LC-MS (Agilent 1260 Infinity II) equipped with an ESI-Q detector (Infinitylab LC-MSD) using Agilent InfinityLab Poroshell 120 C18 columns (2.7 μm, ϕ 2.1 mm L 50 mm or 2.7 μm, ϕ 4.6 mm L 50 mm). The intermediates were purified using VWR silica gel 60 (40–63 μm) with a Biotage Isolera One flash column chromatography instrument. The final products were purified with preparative RP-HPLC (VWR LaPrep P110) with single wavelength detection (254 nm), using a Kinetex C8 column (5 μm, 100 Å, ϕ 21.2 mm L 250 mm) and gradients of CH3CN/H2O + 0.1% formic acid as the mobile phase at a 10 mL/min flow rate. Analytical HPLC data were acquired on a VWR LaChrome ELITE system using an ACE3 C8 (3 μm, 300 Å, ϕ 3.0 mm L 100 mm) or a Kinetex C18 columns (5 μm, 100 Å, ϕ 3.0 mm L 150 mm). NMR spectra were recorded on a Varian Agilent MR400-DD2 400 MHz spectrometer equipped with a OneNMR probe, Bruker Avance Neo 500 MHz spectrometer equipped with a cryogenic TXO probe, or a Bruker Avance Neo 600 MHz spectrometer equipped with a TCI cryogenic probe. The chemical shifts are reported using the residual solvent signal as an indirect reference to TMS.
4. Long term stability of the final compounds in buffer with 2.5% DMSO
The long term stability of the final compounds in buffer (20 mM KPO4, 0.1 mM ZnCl2, pH 7.0 + 2.5% DMSO) were monitored using LC-MS (Agilent 1260 Infinity II) equipped with an ESI-Q detector (Infinitylab LC-MSD) using Agilent InfinityLab Poroshell 120 C18 column (2.7 μm, ϕ 4.6 mm L 50 mm) at 254 nm with a 7 min long gradient method (5% to 95% CH3CN) of CH3CN/H2O + 0.1% formic acid as the mobile phase at a 1.0 mL/min flow rate. The samples were measured right after dissolving them in buffer, and after 1 month of keeping the same samples dissolved in the same buffer. The main peaks (> 95%) and impurities with > 1% are […]
Figure S14. Compound 5a right after dissolving it in buffer.
Figure S15. Compound 5a kept in buffer for 1 month. […]

A short description of a further data set: MTT cytotoxicity assay. In kind it is cell-based. The following applies: human, HepG2 cells. Here is the method:
Cytotoxic activity of the compounds was measured through the MTT colorimetric assay as previously described[60] using the Colorimetric (MTT) Kit for Cell Survival and Proliferation (Merck/Millipore; Darmstadt, Germany). HepG2 cells (human hepatocellular carcinoma cell line) were kept in penicillin/streptomycin-free medium overnight and then they were treated with the compounds for 24 h. Subsequently, the MTT reagent was added to the cells and after 3 h of incubation, MTT-derived formazan crystals were solubilized in acidified isopropanol (0.1 mL isopropanol with 0.04 N HCl). Absorbance was measured with multiscan spectrophotometer (Thermo Fisher Scientific) at 530 nm test and 630 nm reference wavelengths. Cell viability was expressed as the percentage of viable, untreated cells. CC50 values were determined with GraphPad Prism software (v9.3.1) and adjusted to dose-response curves by non-linear regression (Supplementary Table S7).
8. Cytotoxocity against HepG2 cells
Table S7. CC50 values and viability curves of metallo-β-lactamase inhibitors tested on HepG2 […]
cells. […]
range. Data are shown as % via bility values ± SEM (n=4). Calculations were done using […]
Inhibitors CC50 (μM) HepG2 […]

Data set [3] has as its target T1, GIM-1. The experiment in a line: Enzymatic metallo-β-lactamase assay on purified GIM-1. Format: biochemical. The conditions noted are these: for logIC50 GIM-1: log of IC50, ± SEM of logIC50; for IC50: purified enzyme 1 nM, nitrocefin 2 μM, pH 7.2, 25 °C. The method, then: (§1) A few inhibitors were tested up to 1600 μM to ensure nearly complete inhibition. Solutions of 100 μL consisting of buffer, purified enzyme (1 nM for GIM-1 and VIM-2, 5 nM for NDM-1), inhibitor and reporter substrate nitrocefin (15 μM for VIM-2, 2 μM for GIM-1) or imipenem (30 μM for NDM-1) were incubated in triplicates on a 96 well plate for 5 min at 25 °C. Buffer solution consisted of 50 mM HEPES pH 7.2, 50 μM ZnSO4 and 0.4 mg/ml bovine serum albumine. Inhibitors were dissolved in DMSO but diluted to assure <2% DMSO in measured assay. Absorbance was measured at 482 nm (nitrocefin) and 300 nm (imipenem) on a SpectraMax M4 spectrophotometer. The initial velocity at each inhibitor concentration was analyzed in GraphPad Prism v9.3.1 and fitted to dose-response curves by non-linear regression (log [inhibitor] vs response) used to calculate IC50 (Supplementary Tables S2–5).

A further data set addresses NDM-1 (Klebsiella pneumoniae, UniProt C7C422). The data set can be described thus: Enzymatic metallo-β-lactamase assay on purified NDM-1. In kind it is biochemical. The conditions noted are these: for Ki: approximated from Dixon plots (1/v vs [I]) at one constant substrate concentration, ± SE, read-out: Estimated inhibition constant Ki NDM-1; for logIC50 NDM-1: log of IC50, ± SEM of logIC50; for IC50: purified enzyme 5 nM, imipenem 30 μM, pH 7.2, 25 °C. The method, then: as §1

For a further data set, the target named is VIM-2 (Escherichia coli, UniProt Q5U7L7). The experiment in a line: Enzymatic metallo-β-lactamase assay on purified VIM-2. Format: biochemical. The conditions noted are these: for Ki: approximated from Dixon plots (1/v vs [I]) at one constant substrate concentration, ± SE, read-out: Estimated inhibition constant Ki VIM-2; for logIC50 VIM-2: log of IC50, ± SEM of logIC50; for IC50: purified enzyme 1 nM, nitrocefin 15 μM, pH 7.2, 25 °C. Here is the method: as §1

[4] abbreviates: HepG2, MTT, read-out: CC50 (in viability curve).
The mark [5] stands for this setting: MTT, 0.0025 mM - 1mM concentration range, read-out: Cytotoxicity CC50 HepG2.

Each structure is given as a SMILES string. Where two headings read alike, the source gives them in different places.

NDM-1, sequence (C7C422 29-270, looked up, species assumed): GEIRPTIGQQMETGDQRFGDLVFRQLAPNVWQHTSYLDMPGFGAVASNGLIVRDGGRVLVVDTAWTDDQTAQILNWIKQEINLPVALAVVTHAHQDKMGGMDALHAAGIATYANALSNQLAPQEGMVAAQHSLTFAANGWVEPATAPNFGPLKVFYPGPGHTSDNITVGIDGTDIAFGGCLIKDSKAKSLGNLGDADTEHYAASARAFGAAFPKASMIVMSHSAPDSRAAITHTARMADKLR
T1 sequence (Q704V1 entry or part of it): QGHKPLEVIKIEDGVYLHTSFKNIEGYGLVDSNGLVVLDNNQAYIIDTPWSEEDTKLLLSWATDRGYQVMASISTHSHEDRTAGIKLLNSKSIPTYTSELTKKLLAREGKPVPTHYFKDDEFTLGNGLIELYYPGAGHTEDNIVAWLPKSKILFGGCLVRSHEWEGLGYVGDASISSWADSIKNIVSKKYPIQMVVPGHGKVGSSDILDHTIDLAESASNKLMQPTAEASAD

What is called Ki is the dissociation constant of the complex between target and ligand, obtained from inhibition or displacement. The term CC50 denotes the concentration giving 50% cytotoxicity. In general, IC50 refers to the concentration needed to halve the response being measured. With `O=C(Cc1csc2ccccc12)NC(c1ccccc1O)P(=O)(O)O` (stereo not drawn) [5l], at GIM-1 [1], the Ki was 193 ± 41 µM. For the same molecule, in data set [2], the “main peak Area% kept in buffer for 1 month” value (“main peak Area% kept” for short) worked out at 98.10% and the “main peak Area% right after dissolving in buffer” value (“main peak Area% right” below) amounted to 98.54%. In the data set “MTT cytotoxicity assay” (setting [4]), the CC50 at 24 h came to 3900 µM. Moreover, the CC50 at 24 h in “MTT cytotoxicity assay” (setting [5]) is 3910 µM. For the same molecule, at GIM-1 [3], the “logIC50 GIM-1” value is recorded as 1.71 ± 0.07 μM and the IC50 is 51 µM. Besides, at NDM-1, the Ki is 411 ± 160 µM, the “logIC50 NDM-1” value was 1.83 ± 0.05 log10(IC50/μM) and the IC50 turned out to be 67 µM. In addition, at VIM-2, the inhibition constant Ki is 39 ± 5 µM, the “logIC50 VIM-2” value worked out at 1.42 ± 0.18 μM and the IC50 came to 26 µM.
Regarding `O=C(Cc1cc2ccccc2s1)NC(c1ccccc1O)P(=O)(O)O` (stereo not drawn) [5k], the Ki on GIM-1 [1] was 189 ± 76 µM. In addition, in data set [2], the “main peak Area% kept” value was determined as 98.27% and the “main peak Area% right” value worked out at 98.10%. In “MTT cytotoxicity assay” (setting [4]), the CC50 at 24 h was determined as 5600 µM. Further, the CC50 at 24 h in the data set “MTT cytotoxicity assay” (setting [5]) is 5610 µM. On GIM-1 [3], the “logIC50 GIM-1” value is 1.90 ± 0.08 μM and the midpoint of inhibition, the IC50, lay at 80 µM. On NDM-1, the Ki is 262 ± 41 µM, the “logIC50 NDM-1” value is recorded as 1.81 ± 0.11 log10(IC50/μM) and it took 65 µM to reach half-maximal inhibition (IC50). For the same molecule, on VIM-2, the Ki is 119 ± 13 µM, the “logIC50 VIM-2” value turned out to be 1.71 ± 0.07 μM and the IC50 was 51 µM.
Regarding `O=C(NC(c1ccccc1O)P(=O)(O)O)c1cc2c(s1)CCCC2` (stereo not drawn) [5e], the Ki on GIM-1 [1] is 76 ± 5 µM. Further, in data set [2], the “main peak Area% kept” value turned out to be 98.87% and the “main peak Area% right” value stood at 98.53%. The CC50 at 24 h in the data set “MTT cytotoxicity assay” (setting [4]) was above 1000 µM. In addition, the CC50 at 24 h in “MTT cytotoxicity assay” (setting [5]) is above 1000 µM. Also, on GIM-1 [3], the “logIC50 GIM-1” value is 1.73 ± 0.12 μM and the IC50 stood at 53 µM. Also, at VIM-2, the Ki was 72 ± 7 µM, the “logIC50 VIM-2” value amounted to 1.90 ± 0.11 μM and the IC50 is 79 µM.
As to `O=C(Cc1ccccc1)NC(c1ccccc1O)P(=O)(O)O` (stereo not drawn) [5m], the Ki on GIM-1 [1] was 213 ± 22 µM. In addition, the “main peak Area% right” value in data set [2] stood at 96.96%. The CC50 at 24 h in “MTT cytotoxicity assay” (setting [4]) is above 1000 µM. Besides, the CC50 at 24 h in the data set “MTT cytotoxicity assay” (setting [5]) is above 1000 µM. At GIM-1 [3], the “logIC50 GIM-1” value turned out to be 2.08 ± 0.53 μM and the IC50 was found to be 121 µM. At VIM-2, the Ki is 74 ± 7 µM, the “logIC50 VIM-2” value is recorded as 1.87 ± 0.35 μM and the IC50 came out at 74 µM.
Consider `O=C(NC(c1ccccc1O)P(=O)(O)O)c1cccs1` (stereo not drawn) [5a], for which, at GIM-1 [1], the Ki was 144 ± 36 µM. In data set [2], the “main peak Area% kept” value amounted to 95.67% and the “main peak Area% right” value is 95.87%. Moreover, the CC50 at 24 h in the data set “MTT cytotoxicity assay” (setting [4]) was 4500 µM. In “MTT cytotoxicity assay” (setting [5]), the CC50 at 24 h was found to be 4550 µM. Moreover, on GIM-1 [3], the “logIC50 GIM-1” value was determined as 1.30 ± 0.08 μM and the midpoint of inhibition, the IC50, lay at 20 µM. Also, on NDM-1, the Ki is 617 ± 95 µM, the “logIC50 NDM-1” value was 2.34 ± 0.09 log10(IC50/μM) and the IC50 was found to be 217 µM. In addition, on VIM-2, the Ki is 36 ± 6 µM, the “logIC50 VIM-2” value was 1.85 ± 0.07 μM and half-maximal inhibition (IC50) was put at 71 µM.
Take `O=C(NC(c1ccccc1O)P(=O)(O)O)c1ccsc1` (stereo not drawn) [5b]: on GIM-1 [1], the Ki is 162 ± 21 µM. Further, in data set [2], the “main peak Area% kept” value stood at 95.03% and the “main peak Area% right” value is 95.46%. Besides, the CC50 at 24 h in the data set “MTT cytotoxicity assay” (setting [4]) was 1800 µM. Besides, the CC50 at 24 h in “MTT cytotoxicity assay” (setting [5]) amounted to 1830 µM. Also, on GIM-1 [3], the “logIC50 GIM-1” value was 2.37 ± 0.21 μM and the IC50 is 236 µM. Also, on NDM-1, the Ki was 451 ± 57 µM, the “logIC50 NDM-1” value is reported as 1.99 ± 0.13 log10(IC50/μM) and half-maximal inhibition (IC50) was put at 97 µM. Further, on VIM-2, the Ki is 112 ± 11 µM; the “logIC50 VIM-2” value worked out at 2.10 ± 0.08 μM; the midpoint of inhibition, the IC50, lay at 124 µM.
Consider `O=C(NC(c1ccccc1O)P(=O)(O)O)c1ccccc1` (stereo not drawn) [5h], for which the Ki on GIM-1 [1] is 118 ± 20 µM. Further, in data set [2], the “main peak Area% kept” value is reported as 95.39% and the “main peak Area% right” value came to 95.97%. In addition, in the data set “MTT cytotoxicity assay” (setting [4]), the CC50 at 24 h is above 1000 µM. The CC50 at 24 h in “MTT cytotoxicity assay” (setting [5]) is above 1000 µM. Besides, at GIM-1 [3], the “logIC50 GIM-1” value is listed as 1.54 ± 0.13 μM and the IC50 amounted to 35 µM. In addition, at NDM-1, the inhibitory constant (Ki) is 363 ± 86 µM, the “logIC50 NDM-1” value was 1.93 ± 0.09 log10(IC50/μM) and the IC50 came to 85 µM. On VIM-2, the Ki was 85 ± 12 µM, the “logIC50 VIM-2” value is 1.74 ± 0.05 μM and the IC50 turned out to be 55 µM.

Values taken from PMC12009420, “Dynamically chiral phosphonic acid-type metallo-β-lactamase inhibitors” (Communications Chemistry, 2025).
